Measurements published in PubChem BioAssay AID816 (SRMLSC, 2007).
Calls of active or inactive are those of the source. The rule behind the calls is not given here.

Test system: S. cerevisiae GAL1 promoter reporter activation counterscreen
Test: yeast Gal1p promoter activation – S. cerevisiae, artefact control for yeast lifespan extension project (AID 816);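 note: yeast growth read after 24 h of incubation with compounds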

SMILES	EC50
CCOC(=O)c1ccccc1N1C(=O)CSC1=S	> 40 µM (inactive)
C=C(C)CN(CC)C(=O)COc1ccc(S(=O)(=O)Nc2ccc(OC)cc2)cc1	> 40 µM (inactive)
CC1(C)Oc2ccccc2OC1(O)c1ccc2ccccc2n1 (stereo unspecified)	> 40 µM (inactive)
COc1ccc(NC(=O)/C(Cl)=C(/Cl)S(=O)Cc2ccc(C)cc2)cn1 (stereo unspecified)	> 40 µM (inactive)
CC1(C)CC(=O)c2sc(NS(C)(=O)=O)nc2C1	> 40 µM (inactive)
CCC(C)OC(=O)C1C(c2ccccc2)C(C(=O)O)C1c1ccccc1 (stereo unspecified)	> 40 µM (inactive)
O=C1CC(c2ccccc2)CC(O)=C1C=NCCN1CCN(C(=O)Cc2ccccc2)CC1 (stereo unspecified)	> 40 µM (inactive)
COc1ccc(-c2cc(C(F)(F)F)nc(S(C)(=O)=O)n2)cc1	> 40 µM (inactive)
CCOC(=O)Cc1csc(NC(=O)c2c(O)c3ccccc3n(CC(C)C)c2=O)n1	> 40 µM (inactive)
COc1ccc(C(C)NC(=O)c2ccccc2)cc1 (stereo unspecified)	> 40 µM (inactive)
COc1cc(/C=c2\sc3nc(-c4ccncc4)nn3c2=O)ccc1OC(C)=O	> 40 µM (inactive)
Cc1ccc(C(=O)OC2=CC(=O)CC(C)(C)C2)cc1	> 40 µM (inactive)
CCNCCNC(=O)c1c(O)c2cccc3c2n(c1=O)CCC3	> 40 µM (inactive)
O=C(Nc1nc2ccccc2n1CCN1CCOCC1)c1cn(-c2ccccc2)nc1-c1ccccc1	> 40 µM (inactive)
O=C(NCCc1ccccn1)C(F)(F)C(F)(F)C(F)(F)C(F)(F)C(F)(F)C(F)(F)C(F)(F)C(F)F	> 40 µM (inactive)
Cc1cccc(N2C(=O)/C(=C\c3ccc(OC(F)F)cc3)c3ccccc3C2=O)c1	> 40 µM (inactive)
O=C(c1cnn2c(C(F)F)cc(C3CC3)nc12)N1CCCC1	> 40 µM (inactive)
Cc1cc(C2C(C#N)=C(N)Oc3n[nH]c(C)c32)c(C)s1 (stereo unspecified)	> 40 µM (inactive)
N#CSCC(=O)N1c2ccccc2CCc2ccccc21	> 40 µM (inactive)
COc1ccc(N(C)C(=S)Nc2ccc3nc(C)c(C)nc3c2)cc1	> 40 µM (inactive)
COc1cccc(C(=O)Oc2cc(N)n(S(=O)(=O)c3ccc(C)cc3)n2)c1OC	> 40 µM (inactive)
O=C1C(=C(O)c2ccccc2)C(=O)c2ccccc21	> 40 µM (inactive)
CCCCOC(=O)CSc1nc2c(c(=O)[nH]c(=O)n2C)n1C/C=C(\C)Cl	> 40 µM (inactive)
O=C1C(C2=C(O)c3ccccc3C2=O)=Nc2ccccc21	> 40 µM (inactive)
O=C1Nc2cc(Cl)c(Cl)cc2N(O)N1c1cc(Cl)cc(Cl)c1	> 40 µM (inactive)
O=C1c2ccccc2C(Nc2ccc3c(c2)OCCO3)N1c1ccccn1 (stereo unspecified)	> 40 µM (inactive)

SMILES	EC50
O=C1Nc2ccccc2C12OCC1(CO2)COC2(OC1)C(=O)Nc1ccccc12 (stereo unspecified)	> 40 µM (inactive)
Oc1ccc2ccccc2c1/C=N/c1nccs1	> 40 µM (inactive)
O=C(CSc1nc2ccccc2o1)c1cc2ccccc2oc1=O	> 40 µM (inactive)
C/C(=N\NC(=O)c1cccc(Cl)c1)C1C(=O)c2ccccc2C1=O	> 40 µM (inactive)
Cc1ccc(NC(=O)CN2CCN(CCN=CC3=C(O)CC(c4ccccc4)CC3=O)CC2)cc1 (stereo unspecified)	> 40 µM (inactive)
O=c1[nH]c2ccccc2nc1Cc1ccccc1	> 40 µM (inactive)
CC(C)n1c(-c2ccccc2F)n[nH]c1=S	> 40 µM (inactive)
C[C@]12CC[C@@H]3c4ccc(O)cc4CC[C@H]3[C@@H]1CC[C@@H]2OC(=O)CCC(=O)O	> 40 µM (inactive)
COC(=O)C(=O)/C=C(\O)c1ccc(C)cc1	> 40 µM (inactive)
CCn1cc(C(=O)O)c(=O)c2ccc(C)nc21	> 40 µM (inactive)
CCC(=O)N1CCN(CCN=CC2=C(O)CC(c3cccs3)CC2=O)CC1 (stereo unspecified)	> 40 µM (inactive)
CN(c1ccccc1)c1nc2ccsc2c(=O)s1	> 40 µM (inactive)
CCOC(=O)c1c(C)oc2c1c(C(c1cccnc1)N1CCCCC1)c(O)c1ccccc12 (stereo unspecified)	> 40 µM (inactive)
O=C(O)c1cccc2c1C(=O)N(C1CCCCC1)C2	> 40 µM (inactive)
CCOC(=O)CCS(=O)(=O)c1nc(-c2ccccc2)cc(C(F)(F)F)n1	> 40 µM (inactive)
COC(=O)CSc1ncccc1-c1nc2ccccc2[nH]1	> 40 µM (inactive)
O=C(/C=C(\O)c1ccc(Cl)cc1)C(=O)NNC(=O)C(O)(c1ccccc1)c1ccccc1	> 40 µM (inactive)
CCCCC(c1nnnn1CC1CCCO1)N1CCN(c2nc3ccccc3s2)CC1 (stereo unspecified)	> 40 µM (inactive)
Cc1ccccc1OC(=O)n1c(=S)oc2cc(Cl)ccc21	> 40 µM (inactive)
C/C=C/Cn1c(N2CCCCCC2)nc2c1c(=O)[nH]c(=O)n2C	> 40 µM (inactive)
Cc1cc2c(c(=O)n1CCc1ccccc1)C(c1ccco1)C(C#N)=C(N)O2 (stereo unspecified)	> 40 µM (inactive)
Cc1cc(NS(=O)(=O)c2ccc(CC(C)C)cc2)no1	> 40 µM (inactive)
CC(C)c1nnc(NC(=O)c2c(O)c3cccc4c3n(c2=O)CCC4)s1	> 40 µM (inactive)
CCSc1ccccc1C(=O)n1nnc2ccccc21	> 40 µM (inactive)
Nn1c(-c2ccccn2)nnc1-c1ccccn1	> 40 µM (inactive)
Cc1cccc(OC(=O)n2c(=S)oc3cc(Cl)ccc32)c1	> 40 µM (inactive)

SMILES	EC50
Cc1cc(C)c(S(=O)(=O)c2ccccc2)c(OC(=O)c2ccc(Cl)cc2Cl)n1	> 40 µM (inactive)
CCCc1cc(=O)oc2cc(C)c(CN3CCCC3)c(O)c12	> 40 µM (inactive)
Cc1ccc(C(=O)NNC(=S)NC(=O)c2ccc(Cl)cc2)cc1	> 40 µM (inactive)
CCCCC(CC)Cn1c2nc3ccccc3nc2c2c(=N)oc(C)nc21 (stereo unspecified)	> 40 µM (inactive)
Cc1cc(C)n2cc(CSc3nnc(N)s3)nc2n1	> 40 µM (inactive)
CCCCCSc1nc2c(c(=O)[nH]c(=O)n2C)n1C	> 40 µM (inactive)
c1cncc(-c2nn[nH]n2)c1	> 40 µM (inactive)
CCC(=O)Nc1ccccc1Sc1ncnc2scc(-c3ccccc3)c12	> 40 µM (inactive)
CCOc1ccccc1/C=c1\sc2ncnn2c1=O	> 40 µM (inactive)
COC(=O)C1=C(C(=O)OC)C(c2cc(Br)ccc2O)c2sc(=O)[nH]c2S1 (stereo unspecified)	> 40 µM (inactive)
CCn1c(/C=N/c2nc3ccccc3n2C)nc2ccccc21	> 40 µM (inactive)
O=c1[nH]c2ccccc2nc1C(Cl)c1ccccc1 (stereo unspecified)	> 40 µM (inactive)
CCN(CCO)C(=O)C12CCC(C)(C(=O)C1)C2(C)C (stereo unspecified)	> 40 µM (inactive)
Cc1ccnc(N=Cc2c(O)ccc3oc4c(c23)CCCC4)c1	> 40 µM (inactive)
COc1ccc(-c2noc(CSc3nnc(-c4ccncc4)n3-c3ccc(F)cc3)n2)cc1OC	> 40 µM (inactive)
COc1ccc(N(C(=O)C(C)C)S(=O)(=O)c2ccc(Cl)cc2)cc1	> 40 µM (inactive)
O=C1C(Cl)=C(Nc2ccccc2O)C(=O)N1CCc1ccccc1	> 40 µM (inactive)
Cc1cc(C)nc(SCc2cc(=O)c(OC(=O)c3ccc(Br)o3)co2)n1	> 40 µM (inactive)
CCc1ccc(C(=O)CN2C(=O)NC(C)(CCc3ccccc3)C2=O)cc1 (stereo unspecified)	> 40 µM (inactive)
Cn1c(SCC(=O)N2CCCc3ccccc32)nnc1-c1c[nH]c2ccccc12	> 40 µM (inactive)
O=S(=O)(CCSc1ccccn1)c1nc2ccccc2s1	> 40 µM (inactive)
Cc1ccnc(-n2c(C)cc(/C=C3\C(=O)NC(=S)N(C)C3=O)c2C)c1	> 40 µM (inactive)
COc1c(Br)cc(Br)cc1/C=N/n1c(C)nnc1C	> 40 µM (inactive)
Oc1ccc(NCc2ccccc2OCc2ccccc2F)cc1	> 40 µM (inactive)
Cc1ccc(N2NC(=O)/C(=C\c3cc4c(cc3[N+](=O)[O-])OCO4)C2=O)cc1C	> 40 µM (inactive)
O=C(Nc1ccc(S(=O)(=O)N2CCc3ccccc3C2)cc1)c1ccccc1	> 40 µM (inactive)

SMILES	EC50
CCOC(=O)c1[nH]nc(C(=O)c2ccc(Br)cc2)c1O	> 40 µM (inactive)
O=S1(=O)C=C(Sc2nnc(-c3ccccc3)o2)c2ccccc21	> 40 µM (inactive)
CCCCOC(=O)n1c(=O)oc2cc(S(=O)(=O)N3CCCCC3)ccc21	> 40 µM (inactive)
COc1ccccc1-c1c(C)oc2cc(OC(=O)c3ccco3)ccc2c1=O	> 40 µM (inactive)
CC1=NN(Cc2ccccc2)C(=O)C1C(c1ccccc1)C(C#N)C#N (stereo unspecified)	> 40 µM (inactive)
Cc1ccc(N(C)C(=O)Oc2ccc(C(=O)c3ccc(Cl)cc3)cc2)cc1	> 40 µM (inactive)
Cc1ccc(OCC(=O)c2c(O)c3ccccc3oc2=O)cc1C	> 40 µM (inactive)
CCOc1cc(Br)c(Br)c(C=Nc2ccc(NC(C)=O)cc2)c1O	> 40 µM (inactive)
COc1ccc(C(=O)C(CN2CCOCC2)c2ccccc2)cc1 (stereo unspecified)	> 40 µM (inactive)
COc1ccc(CN2CCN(C(=O)COc3cccc(C)c3)CC2)c(OC)c1	> 40 µM (inactive)
O=C(N/N=C/c1cccc(F)c1)c1c(O)c2ccccc2[nH]c1=O	> 40 µM (inactive)
C=C(C(=O)c1ccccc1)C(C)C(=C)C(=O)c1ccccc1	> 40 µM (inactive)
CCCCn1c(NS(=O)(=O)c2ccc(C)cc2)c(C(=O)OCC)c2nc3ccccc3nc21	> 40 µM (inactive)
O=C1ON=C(c2ccccc2)/C1=C/c1ccc(-c2ccccc2[N+](=O)[O-])o1	> 40 µM (inactive)
Cc1nc(SC(C)C)[nH]c(=O)c1Cc1ccccc1	> 40 µM (inactive)
CCCCCC1CC1C(=O)N/N=C/c1ccc(N(C)C)cc1 (stereo unspecified)	> 40 µM (inactive)
CCc1cc2c(=O)c(Oc3ccccc3)c(C)oc2cc1O	> 40 µM (inactive)
CN1C(=O)NC(c2ccc(O)cc2)C(C(=O)c2cccs2)C1(O)C(F)(F)F (stereo unspecified)	> 40 µM (inactive)
COc1cccc(C2CC3C(=O)C=CC2N3Cc2ccccc2)c1 (stereo unspecified)	> 40 µM (inactive)
CC1=CS(=O)(=O)CC1Sc1nc2ccccc2[nH]1 (stereo unspecified)	> 40 µM (inactive)
N#Cc1ccc(-c2ccc(OCC(=O)NCCc3ccccc3)cc2)cc1	> 40 µM (inactive)
Cc1nc2ccccc2n1-c1ccccc1	> 40 µM (inactive)
CC(C)C(C(=O)O)N1C(=O)/C(=C/c2cccn2C)SC1=S (stereo unspecified)	> 40 µM (inactive)
